Laboratory results as given in PMC4322967, “Afatinib circumvents multidrug resistance via dually inhibiting ATP binding cassette subfamily G member 2 in vitro and in vivo” (Oncotarget, 2014).

Assays:
Format in all cases: cell-based
[1] = biological target: T1, ABCG2 (Homo sapiens, UniProt Q9UNQ0); assay: vanadate-sensitive ATPase assay in crude membranes; also 5D3 shift and PhA efflux inhibition in HEK293/ABCG2 cells; set-up: crude membranes from ABCG2-expressing High Five insect cells
T1 sequence (Q9UNQ0 1-655): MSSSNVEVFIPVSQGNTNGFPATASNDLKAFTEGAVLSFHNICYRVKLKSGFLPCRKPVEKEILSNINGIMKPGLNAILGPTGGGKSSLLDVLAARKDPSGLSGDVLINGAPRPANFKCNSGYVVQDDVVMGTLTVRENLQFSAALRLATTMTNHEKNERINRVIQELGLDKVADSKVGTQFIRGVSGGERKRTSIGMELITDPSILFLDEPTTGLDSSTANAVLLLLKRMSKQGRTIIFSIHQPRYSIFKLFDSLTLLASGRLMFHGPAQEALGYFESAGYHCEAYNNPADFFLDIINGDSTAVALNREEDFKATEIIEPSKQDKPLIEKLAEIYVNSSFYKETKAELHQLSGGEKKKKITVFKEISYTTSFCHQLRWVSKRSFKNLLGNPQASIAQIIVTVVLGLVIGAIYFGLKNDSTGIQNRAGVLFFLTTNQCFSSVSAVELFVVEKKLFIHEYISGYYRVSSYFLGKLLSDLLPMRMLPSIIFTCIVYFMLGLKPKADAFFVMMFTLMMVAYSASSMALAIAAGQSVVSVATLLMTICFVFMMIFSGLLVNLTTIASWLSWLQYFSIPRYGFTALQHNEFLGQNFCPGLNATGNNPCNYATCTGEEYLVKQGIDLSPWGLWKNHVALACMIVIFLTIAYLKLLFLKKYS

[2] = biological target: T1, ABCG2; set-up: ABCG2-stably transfected HEK293 cells
[3] = biological target: T1, ABCG2; assay: 5D3 conformational antibody shift at […], flow cytometry; set-up: ABCG2-stably transfected HEK293 cells
[4] = biological target: T1, ABCG2; assay: flow cytometry efflux of […] PhA in HEK293/ABCG2 versus pcDNA3 cells; set-up: HEK293 cells stably transfected with ABCG2
[5] = biological target: T1, ABCG2; assay: 5D3 conformational antibody shift at […], flow cytometry; set-up: ABCG2-stably transfected HEK293 cells; remark: listed apart in the source

In the case of `CN(C)C/C=C/C(=O)Nc1cc2c(Nc3ccc(F)c(Cl)c3)ncnc2cc1O[C@H]1CCOC1` [Afatinib], the “vanadate-sensitive ATPase assay in crude membranes; also 5D3 shift and PhA efflu” value [1] is reported as “afatinib was found to inhibit the ATPase activity of ABCG2 in a dose dependent manner”.
For `C#Cc1cccc(Nc2ncnc3cc(OCCOC)c(OCCOC)cc23)c1` [erlotinib], the “5D3 conformational antibody shift at 10 μM, flow cytometry” value [2] was “Other known ABCG2 inhibitors (including FTC, tariquidar and erlotinib) tested were also shown to notably increase 5D3 labeling”.
With `COc1ccc2c3c([nH]c2c1)[C@H](C=C(C)C)N1C(=O)[C@@H]2CCCN2C(=O)[C@@H]1C3` [fumitremorgin C] the “5D3 conformational antibody shift at 5 μM, flow cytometry” value [3] was “Other known ABCG2 inhibitors (including FTC, tariquidar and erlotinib) tested were also shown to notably increase 5D3 labeling”.
`C=Cc1c(C)c2cc3nc(c4c5[nH]c(cc6nc(cc1[nH]2)C(C)=C6CC)c(C)c5C(=O)[C@@H]4C(=O)OC)[C@@H](CCC(=O)O)[C@@H]3C` [pheophorbide A] was tested, and the “flow cytometry efflux of 1 μM PhA in HEK293/ABCG2 versus pcDNA3 cells” value [4] was “fluorescent ABCG2 probe substrate (pheophorbide A, PhA) for efflux was studied in HEK293/ABCG2 cells by flow cytometry analysis”.
In the case of `COc1cc2c(cc1OC)CN(CCc1ccc(NC(=O)c3cc(OC)c(OC)cc3NC(=O)c3cnc4ccccc4c3)cc1)CC2` [tariquidar], the “5D3 conformational antibody shift at 1 μM, flow cytometry” value [5] is reported as “Other known ABCG2 inhibitors (including FTC, tariquidar and erlotinib) tested were also shown to notably increase 5D3 labeling”.
